Data reported in the supplement of paper PMC10307832.

Key:
Experiment in all cases: relative viability (nuclei count vs DMSO), 5 days (fraction); higher = more cells survive
QS11 + Trametinib = compound: C1CC2=C(C1)C=C(C=C2)OC3=NC(=C4C(=N3)N(C=N4)CC5=CC=C(C=C5)C6=CC=CC=C6)N[C@@H](CC7=CC=CC=C7)CO [QS11] + CC(=O)Nc1cccc(-n2c(=O)n(C3CC3)c(=O)c3c(Nc4ccc(I)cc4F)n(C)c(=O)c(C)c32)c1 [Trametinib] (partner 0.02 µM)
Outline: (§1)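 Five library-drug doses in √10 steps were combined with a fixed anchor-drug dose, or a single drug was given alone, by pin tool to lung cancer cell lines in 1536-well plates the day after seeding. Nuclei were stained and counted after 5 days. Relative viability is the nuclei count in treated wells over that in vehicle wells, taken as the median of duplicate plates.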

QS11 + Pictilisib = compound: C1CC2=C(C1)C=C(C=C2)OC3=NC(=C4C(=N3)N(C=N4)CC5=CC=C(C=C5)C6=CC=CC=C6)N[C@@H](CC7=CC=CC=C7)CO [QS11] + CS(=O)(=O)N1CCN(Cc2cc3nc(-c4cccc5[nH]ncc45)nc(N4CCOCC4)c3s2)CC1 [Pictilisib] (partner 1 µM)
Outline: as §1

AZ628 + Alpelisib = compound: CC1=C(C=C(C=C1)NC(=O)C2=CC(=CC=C2)C(C)(C)C#N)NC3=CC4=C(C=C3)N=CN(C4=O)C [AZ628] + Cc1nc(NC(=O)N2CCC[C@H]2C(N)=O)sc1-c1ccnc(C(C)(C)C(F)(F)F)c1 [Alpelisib] (partner 2 µM)
Outline: as §1

[1] = compound: C[As](C)SC[C@H](NC(=O)CC[C@H](N)C(=O)O)C(=O)NCC(=O)O [Darinaparsin] + N=C(N)NC(=N)NCCc1ccccc1 [Phenformin] (partner 250 µM)
Outline: as §1

Cell Line	relative viability (QS11 + Trametinib; first compound 0.08 µM)	relative viability (QS11 + Trametinib; first compound 0.253 µM)	relative viability (QS11 + Trametinib; first compound 0.8 µM)	relative viability (QS11 + Trametinib; first compound 2.53 µM)	relative viability (QS11 + Trametinib; first compound 8 µM)	relative viability (QS11 + Pictilisib; first compound 0.08 µM)	relative viability (QS11 + Pictilisib; first compound 0.253 µM)	relative viability (QS11 + Pictilisib; first compound 2.53 µM)	relative viability (QS11 + Pictilisib; first compound 8 µM)	relative viability (AZ628 + Alpelisib; first compound 0.08 µM)	relative viability (AZ628 + Alpelisib; first compound 0.253 µM)	relative viability (AZ628 + Alpelisib; first compound 0.8 µM)	relative viability (AZ628 + Alpelisib; first compound 2.53 µM)	relative viability (AZ628 + Alpelisib; first compound 8 µM)	relative viability ([1]; first compound 0.08 µM)	relative viability ([1]; first compound 0.8 µM)	relative viability ([1]; first compound 2.53 µM)	relative viability ([1]; first compound 8 µM)	relative viability (QS11 + Pictilisib; first compound 0.8 µM)
EKVX	0.288	0.618	0.3	0.306	0.321	0.444	0.379	0.413	0.467	0.909	0.903	0.949	0.983	0.866	0.244	0.24	0.228	0.243	–
NCI-H650	0.825	0.934	1.06	0.959	0.983	0.861	0.939	0.876	0.958	1.32	1.44	1.38	1.29	0.939	0.476	0.479	0.428	0.484	0.902
NCI-H2087	0.243	0.219	0.211	0.22	0.205	0.799	0.836	1.03	1.13	0.783	0.73	0.62	0.678	0.231	0.553	0.451	0.467	0.608	0.926
NCI-H1755	0.747	0.755	0.54	0.681	0.618	0.466	0.404	0.408	0.393	0.923	0.878	0.887	0.822	0.792	0.671	0.598	0.545	0.632	0.41
COR-L 105	0.433	0.424	0.414	0.415	0.445	0.346	0.359	0.372	0.347	0.998	1.27	0.921	1.03	0.632	0.505	0.486	0.433	0.451	0.34
NCI-H838	0.558	0.535	0.355	0.469	0.383	0.399	0.388	0.382	0.476	1.03	0.991	0.953	0.92	0.841	0.596	0.508	0.486	0.638	0.394
NCI-H1993	0.57	0.532	0.442	0.508	0.522	0.843	0.935	0.875	0.635	0.73	0.61	0.662	0.631	0.739	0.523	0.441	0.524	0.508	0.799
HARA	0.652	–	0.562	0.48	0.634	0.358	0.46	0.383	0.36	0.68	0.763	0.907	0.726	0.391	0.542	0.416	0.38	0.728	–
PC-3 [JPC-3]	–	0.712	0.674	0.641	0.568	0.699	0.652	0.648	0.601	1.01	1.08	1.06	1.11	0.97	0.534	0.481	0.436	0.467	0.707
NCI-H441	0.59	0.424	0.545	0.56	0.486	0.472	0.529	0.5	0.608	0.781	0.769	0.814	0.637	0.802	1.13	0.821	0.597	0.88	0.501
NCI-H1793	0.491	0.392	0.408	0.469	0.759	0.259	0.329	0.309	0.31	0.921	0.75	0.684	0.564	0.593	0.358	0.435	0.327	0.422	0.356
NCI-H2126	0.588	0.562	0.567	0.596	0.508	0.489	0.444	0.501	0.476	0.819	0.734	0.83	0.783	0.653	0.521	0.511	0.524	0.556	0.503
BEN	1.06	1.11	1.08	1.12	1.11	0.554	0.641	0.524	0.705	1.22	0.87	0.791	0.963	0.835	0.263	0.268	0.263	0.265	0.529
HCC-366	0.348	0.346	–	0.218	0.116	0.138	0.133	0.202	0.0869	0.356	0.317	0.154	0.26	0.12	0.65	0.649	0.588	0.665	–
LCLC-103H	0.705	0.681	–	0.68	0.595	0.636	0.543	0.74	0.609	0.924	1.07	0.981	0.986	0.919	0.36	0.365	0.318	0.349	0.591
NCI-H596	0.776	0.755	0.692	0.683	0.706	0.382	0.189	0.404	0.438	0.504	0.553	0.567	0.498	0.422	0.891	0.737	0.677	0.745	0.516
NCI-H1944	0.423	0.4	–	0.349	0.353	0.331	0.346	0.353	0.39	0.855	0.718	0.673	0.68	0.586	0.217	0.207	0.216	0.192	–
